In ChEMBL document CHEMBL5113400, “Design, synthesis, and biological evaluation of trizole-based heteroaromatic derivatives as Bcr-Abl kinase inhibitors” (Eur J Med Chem, 2022):

Columns and labels:
[1] = system: BaF3; assay: Antiproliferative activity against mouse BaF3 cells expressing Bcr-Abl T315I mutant assessed as inhibition of cell growth at 30 uM incubated for 72 hrs by CellTiter-Glo luminescent assay; assay type: functional
[2] = molecular target: Bcr/Abl fusion protein (Homo sapiens, UniProt P00519); assay: Inhibition of wild type Bcr-Abl (unknown origin) incubated for 1 hr in presence of ATP by ADP-Glo kinase assay; assay type: protein assay
[3] = system: K562/Adr; assay: Antiproliferative activity against human Adriamycin-resistant K562/Adr cells assessed as inhibition of cell growth incubated for 48 hrs by MTT assay; assay type: functional, cell-based
[4] = molecular target: Bcr/Abl fusion protein (Homo sapiens, UniProt P00519, T315I); assay: Inhibition of Bcr-Abl T315I mutant (unknown origin) incubated for 1 hr in presence of ATP by ADP-Glo kinase assay; assay type: protein assay
[5] = system: K562; assay: Antiproliferative activity against human K562 cells assessed as inhibition of cell growth incubated for 48 hrs by MTT assay; assay type: functional, cell-based; conditions: K562, 48 h
[6] = system: K562/Adr; assay: Antiproliferative activity against human Adriamycin-resistant K562/Adr cells assessed as inhibition of cell growth at 30 uM incubated for 48 hrs by MTT assay; assay type: functional
[7] = system: K-562R; assay: Antiproliferative activity against human K-562R cells expressing Bcr-Abl T315I mutant assessed as inhibition of cell growth incubated for 48 hrs by MTT assay; assay type: functional, cell-based
[8] = system: BaF3; assay: Antiproliferative activity against mouse BaF3 cells expressing wild type Bcr-Abl assessed as inhibition of cell growth incubated for 72 hrs by CellTiter-Glo luminescent assay; assay type: functional, cell-based; conditions: BaF3, 72 h
[9] = system: BaF3; assay: Antiproliferative activity against mouse BaF3 cells assessed as inhibition of cell growth incubated for 72 hrs by CellTiter-Glo luminescent assay; assay type: functional, cell-based; conditions: BaF3, 72 h

| IC50 [2] [nM] | IC50 [3] [nM] | IC50 [4] [nM] | IC50 [5] [nM] | IC50 [7] [nM] | IC50 [8] [nM] | IC50 [9] [nM] | Compound | inhibition at 30 µM [1] [%] | inhibition at 30 µM [6] [%] |
| --- | --- | --- | --- | --- | --- | --- | --- | --- | --- |
| 3.11 | 25200 | 303 | 10400 |  |  |  | Nc1ccc(-c2cn([C@@H]3CN[C@H](C(=O)Nc4ccc(Cl)c(C(F)(F)F)c4)C3)nn2)cn1 | 27.9 |  |
| 0.94 |  | 125 | 4710 |  |  |  | CC(C)(C)OC(=O)N1C[C@@H](n2cc(-c3ccc(N)nc3)nn2)C[C@H]1C(=O)Nc1ccc(Cl)c(C(F)(F)F)c1 | 66.7 | 48.6 |
| 60.6 |  | 1880 | 12200 |  |  |  | CC(C)(C)OC(=O)N1C[C@@H](n2cc(-c3ccc4c(N)n[nH]c4c3)nn2)C[C@H]1C(=O)Nc1ccc(Cl)cc1Cl | 28.7 | 25.6 |
| 28.2 |  | 121 | 15500 |  |  |  | CC(=O)Nc1n[nH]c2cc(-c3cn([C@@H]4CN[C@H](C(=O)Nc5ccc(Cl)c(C(F)(F)F)c5)C4)nn3)ccc12 | 21.8 | 23.4 |
| 128 |  | 1590 | 33200 |  |  |  | Nc1nc2ccc(-c3cn([C@@H]4CN[C@H](C(=O)Nc5ccc(F)c(F)c5)C4)nn3)nc2s1 |  | 27.4 |
| 9.26 | 80400 | 140 | 3860 |  |  |  | C=CC(=O)Nc1ccc(-c2cn([C@@H]3CN[C@H](C(=O)Nc4ccc(Cl)c(C(F)(F)F)c4)C3)nn2)cn1 | 26 |  |
| 50 |  | 237 | 3710 |  |  |  | CC(C)(C)OC(=O)N1C[C@@H](n2cc(-c3ccc4c(N)n[nH]c4c3)nn2)C[C@H]1C(=O)Nc1ccc(Br)cc1 | 20.1 | 23 |
| 3.45 |  | 127 | 8980 |  |  |  | CC(=O)Nc1ccc(-c2cn([C@@H]3CN[C@H](C(=O)Nc4ccc(Cl)c(C(F)(F)F)c4)C3)nn2)cn1 | 26.5 | 33.6 |
| 21.9 |  | 150 | 10500 |  |  |  | CC(C)(C)OC(=O)N1C[C@@H](n2cc(-c3ccc4c(N)n[nH]c4c3)nn2)C[C@H]1C(=O)Nc1ccc(Cl)c(C(F)(F)F)c1 | 53.8 | 37.1 |
| 60.1 |  | 801 | 28800 |  |  |  | O=C(Nc1ccc(Cl)c(C(F)(F)F)c1)[C@@H]1C[C@H](n2cc(-c3cncc(C(=O)N4CCOCC4)c3)nn2)CN1 |  | 25.6 |
|  |  |  |  | 80 |  |  | Cc1ccc(C(=O)Nc2ccc(CN3CCN(C)CC3)c(C(F)(F)F)c2)cc1C#Cc1cnc2cccnn12 [PONATINIB] |  |  |
| 5.53 |  | 144 | 8080 |  |  |  | O=C(Nc1n[nH]c2cc(-c3cn([C@@H]4CN[C@H](C(=O)Nc5ccc(Br)cc5)C4)nn3)ccc12)C1CC1 | 20 | 39.6 |
| 0.65 |  | 338 | 8770 |  |  |  | O=C(Nc1ccc(-c2cn([C@@H]3CN[C@H](C(=O)Nc4ccc(Cl)c(C(F)(F)F)c4)C3)nn2)cn1)C1CC1 | 36.4 | 44.3 |
| 5.85 | 1000 | 343 | 3830 |  |  |  | CC(=O)Nc1n[nH]c2cc(-c3cn([C@@H]4CN[C@H](C(=O)Nc5ccc(Br)cc5)C4)nn3)ccc12 | 21.8 |  |
| 43.6 |  | 310 | 10300 |  |  |  | Nc1n[nH]c2cc(-c3cn([C@@H]4CN[C@H](C(=O)Nc5ccc(Br)cc5)C4)nn3)ccc12 |  | 26.8 |
| 4.8 |  | 388 | 9670 |  |  |  | CC(=O)Nc1nc2ccc(-c3cn([C@@H]4CN[C@H](C(=O)Nc5ccc(Cl)cc5Cl)C4)nn3)nc2s1 | 39.5 | 36.1 |
| 41.5 |  | 3440 | 43800 |  |  |  | CC(C)(C)C(=O)Nc1ccc(-c2cn([C@@H]3CN[C@H](C(=O)Nc4ccc(Cl)c(C(F)(F)F)c4)C3)nn2)cn1 |  | 19.1 |
| 17.4 | 63800 | 487 | 26400 |  |  |  | CC(C)(C)OC(=O)N1C[C@@H](n2cc(-c3ccc4nc(N)sc4n3)nn2)C[C@H]1C(=O)Nc1ccc(F)c(F)c1 | 16.8 |  |
| 10.4 | 48200 | 33.3 | 8160 |  |  |  | O=C(Nc1nc2ccc(-c3cn([C@@H]4CN[C@H](C(=O)Nc5ccc(Br)cc5)C4)nn3)nc2s1)C1CC1 | 66.5 |  |
| 8.71 | 12600 | 84.8 | 180 |  |  |  | CCN1CCN(c2cc(NC(=O)[C@@H]3C[C@H](n4cc(-c5ccc6c(N)n[nH]c6c5)nn4)CN3)ccc2Cl)CC1 | 20 |  |

| IC50 [2] [nM] | IC50 [3] [nM] | IC50 [4] [nM] | IC50 [5] [nM] | IC50 [7] [nM] | IC50 [8] [nM] | IC50 [9] [nM] | Compound | inhibition at 30 µM [1] [%] | inhibition at 30 µM [6] [%] |
| --- | --- | --- | --- | --- | --- | --- | --- | --- | --- |
| 9.45 |  | 118 | 24500 |  |  |  | Nc1nc2ccc(-c3cn([C@@H]4CN[C@H](C(=O)Nc5ccc(Cl)cc5Cl)C4)nn3)nc2s1 | 19.5 | 42.2 |
|  | 13500 |  | 1100 | 93000 | 230 | 10000 | Cc1ccc(NC(=O)c2ccc(CN3CCN(C)CC3)cc2)cc1Nc1nccc(-c2cccnc2)n1 [IMATINIB] |  |  |
| 30.1 |  | 1340 | 40700 |  |  |  | O=C(Nc1nc2ccc(-c3cn([C@@H]4CN[C@H](C(=O)Nc5ccc(F)c(F)c5)C4)nn3)nc2s1)C1CC1 |  | 29.5 |
| 15 |  | 137 | 8320 |  |  |  | Nc1n[nH]c2cc(-c3cn([C@@H]4CN[C@H](C(=O)Nc5ccc(Cl)c(C(F)(F)F)c5)C4)nn3)ccc12 | 31.2 | 48.2 |
| 202 |  | 1890 | 63000 |  |  |  | CC(=O)Nc1nc2ccc(-c3cn([C@@H]4CN[C@H](C(=O)Nc5ccc(F)c(F)c5)C4)nn3)nc2s1 |  | 38.4 |
| 14.5 |  | 261 | 27600 |  |  |  | CCN(CC)C(=O)c1cncc(-c2cn([C@@H]3CN[C@H](C(=O)Nc4ccc(Cl)c(C(F)(F)F)c4)C3)nn2)c1 |  | 32.4 |
| 1.94 | 175000 | 31.5 | 820 |  |  |  | O=C(NC1CC1)c1cncc(-c2cn([C@@H]3CN[C@H](C(=O)Nc4ccc(Cl)c(C(F)(F)F)c4)C3)nn2)c1 | 24.6 |  |
| 6.88 |  | 25.2 | 29200 |  |  |  | CC(C)(C)OC(=O)N1C[C@@H](n2cc(-c3ccc4nc(N)sc4n3)nn2)C[C@H]1C(=O)Nc1ccc(Br)cc1 |  | 31.7 |
| 6.99 |  | 169 | 5020 |  |  |  | CC(=O)Nc1nc2ccc(-c3cn([C@@H]4CN[C@H](C(=O)Nc5ccc(Br)cc5)C4)nn3)nc2s1 | 40 | 32 |
| 3.15 | 1230 | 135 | 2090 |  |  |  | CC(=O)Nc1n[nH]c2cc(-c3cn([C@@H]4CN[C@H](C(=O)Nc5ccc(Cl)cc5Cl)C4)nn3)ccc12 | 25.5 |  |
| 10.6 |  | 667 | 10800 |  |  |  | CC(C)(C)OC(=O)N1C[C@@H](n2cc(-c3ccc4nc(N)sc4n3)nn2)C[C@H]1C(=O)Nc1ccc(Cl)c(C(F)(F)F)c1 | 52.3 | 27.4 |
| 24.6 |  | 110 | 16200 |  |  |  | O=C(Nc1nc2ccc(-c3cn([C@@H]4CN[C@H](C(=O)Nc5ccc(Cl)c(C(F)(F)F)c5)C4)nn3)nc2s1)C1CC1 | 78.8 | 10.4 |
| 27.1 |  | 178 | 24400 |  |  |  | Nc1nc2ccc(-c3cn([C@@H]4CN[C@H](C(=O)Nc5ccc(Br)cc5)C4)nn3)nc2s1 | 27.5 | 35.9 |
| 29.2 |  | 349 | 21000 |  |  |  | CN(C)CCNC(=O)c1cncc(-c2cn([C@@H]3CN[C@H](C(=O)Nc4ccc(Cl)c(C(F)(F)F)c4)C3)nn2)c1 | 21.8 | 14.5 |
| 23.5 |  | 59.6 | 10000 |  |  |  | CC(=O)Nc1nc2ccc(-c3cn([C@@H]4CN[C@H](C(=O)Nc5ccc(Cl)c(C(F)(F)F)c5)C4)nn3)nc2s1 | 44.8 |  |
| 0.83 |  | 200 | 5340 |  |  |  | O=C(Nc1n[nH]c2cc(-c3cn([C@@H]4CN[C@H](C(=O)Nc5ccc(Cl)cc5Cl)C4)nn3)ccc12)C1CC1 | 27.6 | 43.3 |
| 14.7 |  | 410 | 8940 |  |  |  | CC(C)(C)OC(=O)N1C[C@@H](n2cc(-c3ccc4nc(N)sc4n3)nn2)C[C@H]1C(=O)Nc1ccc(Cl)cc1Cl | 86.7 | 28.3 |
| 8.6 |  | 3670 | 28400 |  |  |  | Nc1n[nH]c2cc(-c3cn([C@@H]4CN[C@H](C(=O)Nc5ccc(Cl)cc5Cl)C4)nn3)ccc12 | 19.3 | 29.4 |
| 15.6 | 187000 | 24.7 | 26200 |  |  |  | Nc1nc2ccc(-c3cn([C@@H]4CN[C@H](C(=O)Nc5ccc(Cl)c(C(F)(F)F)c5)C4)nn3)nc2s1 |  |  |
